Among the data in US10144738B2, “Pyrazolo[1,5-A]PYRAZIN-4-YL derivatives” (Pfizer Inc., priority 2016, dated 2018) are IC50 values, retold here.

Molecules are shown by their SMILES. Bounds are passed on as bounds.

What all share (type): biochemical
Holding throughout (settings): recombinant human kinase domain, Caliper mobility shift

The target in one assay is TYK2 (Homo sapiens (Human), UniProt P29597). The experiment in a line: JAK Caliper enzyme assay at 1 mM ATP (TYK2). On the procedure:
(§1) Compounds of the invention were evaluated by in vitro methods to determine their respective ability to inhibit the JAK kinases (TYK2, JAK1, JAK2, JAK3).
(§2) The human JAK inhibitory activity was determined by using a microfluidic assay to monitor phosphorylation of a synthetic peptide by the recombinant human kinase domain of each of the four members of the JAK family, JAK1, JAK2, JAK3 and TYK2. […] Each assay condition was optimized for enzyme concentration and room temperature incubation time to obtain a conversion rate of 20% to 30% phosphorylated peptide product. Reactions were terminated by the addition of stop buffer containing EDTA. Utilizing the LabChip 3000 mobility shift technology (Caliper Life Science), each assay reaction was sampled to determine the level of phosphorylation. This technology is separation-based, allowing direct detection of fluorescently labeled substrates and products. Separations are controlled by a combination of vacuum pressure and electric field strength optimized for each peptide substrate.
(§3) JAK Caliper Enzyme Assay at 1 mM ATP
(§4) Compounds were added to a 384-well plate. Reaction mixtures contained 10 mM HEPES, pH 7.4, 10 mM MgCl2, 0.01% BSA, 0.0005% Tween 20, 1 mM ATP and 1 μM peptide substrate. […] The assays were initiated by the addition of 20 nM JAK1, 1 nM JAK2, 1 nM JAK or 1 nM TYK2 enzyme and were incubated at room temperature for three hours for JAK1, 60 minutes for JAK2, 75 minutes for JAK3 or 135 minutes for TYK2. Enzyme concentrations and incubation times were optimized for each new enzyme preps and were modified slightly over time to ensure 20% to 30% phosphorylation. The assays were stopped with 15 μL of 180 mM HEPES, pH 7.4, 20 mM EDTA, and 0.2% Coating Reagent 3. The assay plates were placed on a Caliper Life Science LC3000 instrument, and each well was sampled using appropriate separation conditions to measure the unphosphorylated and phosphorylated peptide.
(§5) The data was collected using the HTS Well Analyzer software from Caliper Life Sciences. The data output for data analysis is the percent product converted calculated on peak height (Equation 1). % product converted=100*((product)/(product+substrate)) Equation 1: […]
(§6) The percent effect at each compound concentration was calculated based on the positive and negative control well contained within each assay plate (Equation 2). […] The negative control wells contained DMSO alone (at the same concentration as the compound wells) that was used to set the baseline activity in the assay (i.e., uninhibited JAK1, JAK2, JAK3 or TYK2). % effect=100*((sample well−negative control)/(positive control-negative control)) Equation 2: The percent effect was plotted against the compound concentration compound.

A further assay has as its target JAK1 (Homo sapiens (Human), UniProt P23458). The assay can be described thus: JAK Caliper enzyme assay at 1 mM ATP (JAK1). On the procedure:
Compounds of the invention were evaluated by in vitro methods to determine their respective ability to inhibit the JAK kinases (TYK2, JAK1, JAK2, JAK3). The human JAK inhibitory activity was determined by using a microfluidic assay to monitor phosphorylation of a synthetic peptide by the recombinant human kinase domain of each of the four members of the JAK family, JAK1, JAK2, JAK3 and TYK2. […] Reactions were terminated by the addition of stop buffer containing EDTA. Utilizing the LabChip 3000 mobility shift technology (Caliper Life Science), each assay reaction was sampled to determine the level of phosphorylation. This technology is separation-based, allowing direct detection of fluorescently labeled substrates and products. Separations are controlled by a combination of vacuum pressure and electric field strength optimized for each peptide substrate. […] Compounds were added to a 384-well plate. […] Enzyme concentrations and incubation times were optimized for each new enzyme preps and were modified slightly over time to ensure 20% to 30% phosphorylation. […] The assay plates were placed on a Caliper Life Science LC3000 instrument, and each well was sampled using appropriate separation conditions to measure the unphosphorylated and phosphorylated peptide. The data was collected using the HTS Well Analyzer software from Caliper Life Sciences. […] The percent effect at each compound concentration was calculated based on the positive and negative control well contained within each assay plate (Equation 2). […] The percent effect was plotted against the compound concentration compound. […] Where max is the maximum asymptote (complete inhibition), min is the minimum asymptote (no inhibition) and s is the slope factor.

The target in another assay is JAK2 (Homo sapiens (Human), UniProt O60674). The assay can be described thus: JAK Caliper enzyme assay at 1 mM ATP (JAK2). As to the method:
as §1, §2, §3, §4, §5, §6

Another assay has as its target JAK3 (Homo sapiens (Human), UniProt P52333). The experiment in a line: JAK Caliper enzyme assay at 1 mM ATP (JAK3). On the procedure: as §1, §2, §3, §4, §5, §6

Sequence of JAK3 (P52333 822-1111): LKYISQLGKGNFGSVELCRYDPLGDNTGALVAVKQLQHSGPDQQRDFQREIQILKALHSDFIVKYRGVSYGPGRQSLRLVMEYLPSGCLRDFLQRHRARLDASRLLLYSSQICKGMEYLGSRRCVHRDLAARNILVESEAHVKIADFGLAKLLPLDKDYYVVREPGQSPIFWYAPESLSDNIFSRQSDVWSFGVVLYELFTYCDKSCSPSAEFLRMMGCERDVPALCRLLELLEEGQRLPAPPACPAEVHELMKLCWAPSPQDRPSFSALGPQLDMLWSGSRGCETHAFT
Sequence of JAK2 (O60674 849-1124): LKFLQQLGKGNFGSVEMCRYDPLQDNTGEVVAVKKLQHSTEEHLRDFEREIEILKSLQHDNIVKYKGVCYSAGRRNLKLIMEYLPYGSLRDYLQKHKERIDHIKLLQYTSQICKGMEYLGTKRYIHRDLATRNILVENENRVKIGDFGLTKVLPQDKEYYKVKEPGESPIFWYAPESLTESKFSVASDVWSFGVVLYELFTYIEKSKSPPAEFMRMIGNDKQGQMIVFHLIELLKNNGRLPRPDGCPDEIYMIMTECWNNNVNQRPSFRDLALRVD
Sequence of JAK1 (P23458 875-1153): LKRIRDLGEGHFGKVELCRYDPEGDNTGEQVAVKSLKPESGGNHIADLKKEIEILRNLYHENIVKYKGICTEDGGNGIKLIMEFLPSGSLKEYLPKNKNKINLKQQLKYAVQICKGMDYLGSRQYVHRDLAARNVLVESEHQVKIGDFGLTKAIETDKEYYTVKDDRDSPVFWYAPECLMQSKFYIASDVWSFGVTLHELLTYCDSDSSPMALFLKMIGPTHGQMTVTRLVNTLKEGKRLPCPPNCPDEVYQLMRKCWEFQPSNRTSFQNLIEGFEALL
Sequence of TYK2 (P29597 897-1176): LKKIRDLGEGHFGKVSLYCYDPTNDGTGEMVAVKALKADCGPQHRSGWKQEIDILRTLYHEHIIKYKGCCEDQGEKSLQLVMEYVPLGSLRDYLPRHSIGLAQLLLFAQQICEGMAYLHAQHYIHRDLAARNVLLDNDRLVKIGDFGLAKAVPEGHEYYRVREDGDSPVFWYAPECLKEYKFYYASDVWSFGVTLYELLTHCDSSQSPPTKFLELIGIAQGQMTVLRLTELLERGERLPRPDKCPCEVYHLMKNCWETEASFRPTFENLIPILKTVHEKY

As for `N#CCC1(n2cc(-c3nc(-c4cc(CO)[nH]n4)cn4nccc34)cn2)CN(CC2CC2)C1` [Example 2, 2-(1-(Cyclopropylmethyl)-3-(4-(6-(5-(hydroxymethyl)-1H-pyrazol-3-yl)pyrazolo[1,5-a]pyrazin-4-yl)-1H-pyrazol-1-yl)azetidin-3-yl)acetonitrile], the IC50 (commonly the concentration at which inhibition is half-maximal) is 62 nM on TYK2, 1060 nM at JAK1, 299 nM at JAK2 and more than 10 µM on JAK3.

Take `CCN1CC(CC#N)(n2cc(-c3nc(-c4cc(CO)[nH]n4)cn4nccc34)cn2)C1` [Example 3, 2-(1-Ethyl-3-(4-(6-(5-(hydroxymethyl)-1H-pyrazol-3-yl)pyrazolo[1,5-a]pyrazin-4-yl)-1H-pyrazol-1-yl)azetidin-3-yl)acetonitrile]: the IC50 at TYK2 is 64 nM; on JAK1, 2290 nM.

As to `Cn1cc(-c2cn3nccc3c(-c3cnn(C4(CC#N)CCC4)c3)n2)cn1` [Example 4, 2-(1-(4-(6-(1-Methyl-1H-pyrazol-4-yl)pyrazolo[1,5-a]pyrazin-4-yl)-1H-pyrazol-1-yl)cyclobutyl)acetonitrile], the IC50 at TYK2 was 55 nM; at JAK1, 1340 nM; on JAK2, 141 nM; on JAK3, more than 10 µM.

Take `CO[C@H]1C[C@](CC#N)(n2cc(-c3nc(-c4cc(NC(C)=O)[nH]n4)cn4nccc34)cn2)C1` [Example 5, N-(3-(4-(1-((1r,3s)-1-(Cyanomethyl)-3-methoxycyclobutyl)-1H-pyrazol-4-yl)pyrazolo[1,5-a]pyrazin-6-yl)-1H-pyrazol-5-yl)acetamide]: the results for the IC50 on TYK2, on JAK1 and at JAK3 were 35 nM, 1920 nM and more than 10 µM, respectively.

`CNC(=O)c1cc(-c2cn3nccc3c(-c3cnn([C@]4(CC#N)C[C@@H](OC)C4)c3)n2)[nH]n1` [Example 6, 5-(4-(1-((1r,3s)-1-(Cyanomethyl)-3-methoxycyclobutyl)-1H-pyrazol-4-yl)pyrazolo[1,5-a]pyrazin-6-yl)-N-methyl-1H-pyrazole-3-carboxamide]: the values for the IC50 at JAK2 and at JAK3 were 500 nM and more than 10 µM, respectively.

For the compound `Cn1cc(-c2cn3nccc3c(-c3cnn(C4(CC#N)CN(S(C)(=O)=O)C4)c3)n2)cn1` [Example 8, 2-(3-(4-(6-(1-Methyl-1H-pyrazol-4-yl)pyrazolo[1,5-a]pyrazin-4-yl)-1H-pyrazol-1-yl)-1-(methylsulfonyl)azetidin-3-yl)acetonitrile], the IC50 was 11 nM at TYK2, 265 nM on JAK1 and more than 9.28 µM on JAK3.

For the compound `Cn1cc(-c2cn3nccc3c(-c3cnn(C4(CC#N)CN(S(=O)(=O)C5CC5)C4)c3)n2)cn1` [Example 9, 2-(1-(Cyclopropylsulfonyl)-3-(4-(6-(1-methyl-1H-pyrazol-4-yl)pyrazolo[1,5-a]pyrazin-4-yl)-1H-pyrazol-1-yl)azetidin-3-yl)acetonitrile], the half-inhibitory concentration (IC50) at TYK2 is 8 nM; at JAK1, 185 nM; on JAK2 it was 49 nM; at JAK3, more than 10 µM.

As for `CCC(=O)N1CC(CC#N)(n2cc(-c3nc(-c4cnn(C)c4)cn4nccc34)cn2)C1` [Example 10, 2-(3-(4-(6-(1-Methyl-1H-pyrazol-4-yl)pyrazolo[1,5-a]pyrazin-4-yl)-1H-pyrazol-1-yl)-1-propionylazetidin-3-yl)acetonitrile], the IC50 on TYK2 is 580 nM; on JAK1, 5710 nM; on JAK2, 1600 nM; on JAK3, more than 10 µM.

Turning to `Cn1cc(-c2cn3nccc3c(-c3cnn([C@]4(CC#N)C[C@H](CC#N)C4)c3)n2)cn1` [Example 11, 2,2′-((1s,3s)-1-(4-(6-(1-Methyl-1H-pyrazol-4-yl)pyrazolo[1,5-a]pyrazin-4-yl)-1H-pyrazol-1-yl)cyclobutane-1,3-diyl)diacetonitrile], the IC50 at TYK2 was 8 nM; at JAK1, 273 nM; at JAK2, 38 nM; on JAK3, more than 6.17 µM.

In the case of `Cn1cc(-c2cn3nccc3c(-c3cnn([C@]4(CC#N)C[C@H](O)C4)c3)n2)cn1` [Example 13, 2-((1s,3r)-3-Hydroxy-1-(4-(6-(1-methyl-1H-pyrazol-4-yl)pyrazolo[1,5-a]pyrazin-4-yl)-1H-pyrazol-1-yl)cyclobutyl)acetonitrile], the IC50 at TYK2 was 149 nM; on JAK1, 3230 nM; at JAK3, more than 10 µM.

Take `Cn1cc(-c2cn3nccc3c(-c3cnn([C@]4(CC#N)C[C@@H](O)C4)c3)n2)cn1` [Example 14, 2-((1r,3s)-3-Hydroxy-1-(4-(6-(1-methyl-1H-pyrazol-4-yl)pyrazolo[1,5-a]pyrazin-4-yl)-1H-pyrazol-1-yl)cyclobutyl)acetonitrile]: the figures for the IC50 at TYK2, on JAK1 and on JAK3 were 81 nM, 1060 nM and more than 10 µM, respectively.

With `CO[C@H]1C[C@](CC#N)(n2cc(-c3nc(-c4cnn(C)c4)cn4nccc34)cn2)C1` [Example 15, 2-((1r,3s)-3-Methoxy-1-(4-(6-(1-methyl-1H-pyrazol-4-yl)pyrazolo[1,5-a]pyrazin-4-yl)-1H-pyrazol-1-yl)cyclobutyl)acetonitrile], the IC50 on JAK1 was 1500 nM; on JAK2 it was 228 nM; on JAK3, more than 9.12 µM.

Turning to `CO[C@H]1C[C@@](CC#N)(n2cc(-c3nc(-c4cnn(C)c4)cn4nccc34)cn2)C1` [Example 16, 2-((1s,3r)-3-Methoxy-1-(4-(6-(1-methyl-1H-pyrazol-4-yl)pyrazolo[1,5-a]pyrazin-4-yl)-1H-pyrazol-1-yl)cyclobutyl)acetonitrile], the values for the IC50 at JAK1, at JAK2 and on JAK3 were 664 nM, 99 nM and 10 µM, respectively.

Regarding `C[C@H]1N(CC(F)(F)F)C[C@]1(CC#N)n1cc(-c2nc(-c3cnn(C)c3)cn3nccc23)cn1` [Example 17, 2-((2R,3S)-2-Methyl-3-(4-(6-(1-methyl-1H-pyrazol-4-yl)pyrazolo[1,5-a]pyrazin-4-yl)-1H-pyrazol-1-yl)-1-(2,2,2-trifluoroethyl)azetidin-3-yl)acetonitrile], the IC50 at TYK2 stood at 35 nM; at JAK1 it was 1730 nM; on JAK2, 205 nM; at JAK3, 10 µM.

As for `Cn1cc(-c2cn3nccc3c(-c3cnn([C@]4(CC#N)C[C@@H](c5ccn[nH]5)C4)c3)n2)cn1` [Example 18, 2-((1r,3r)-1-(4-(6-(1-Methyl-1H-pyrazol-4-yl)pyrazolo[1,5-a]pyrazin-4-yl)-1H-pyrazol-1-yl)-3-(1H-pyrazol-5-yl)cyclobutyl)acetonitrile], the IC50 came out at 47 nM at TYK2, 1080 nM at JAK1, 206 nM on JAK2 and 10 µM at JAK3.

`Cc1nn([C@]2(CC#N)C[C@@H](C#N)C2)cc1-c1nc(-c2cnn(C)c2)cn2nccc12` [Example 21, (1r,3r)-3-(Cyanomethyl)-3-(3-methyl-4-(6-(1-methyl-1H-pyrazol-4-yl)pyrazolo[1,5-a]pyrazin-4-yl)-1H-pyrazol-1-yl)cyclobutane-1-carbonitrile]: the IC50 at TYK2 was 34 nM; at JAK1 it was 1290 nM; on JAK2 it was 109 nM; on JAK3 it was more than 10 µM.
